In general, Km refers to the concentration of substrate that gives half-maximal velocity.

The target in test [1] is T1, Human GS (Homo sapiens, UniProt P48637).
T1 sequence (P48637 1-474): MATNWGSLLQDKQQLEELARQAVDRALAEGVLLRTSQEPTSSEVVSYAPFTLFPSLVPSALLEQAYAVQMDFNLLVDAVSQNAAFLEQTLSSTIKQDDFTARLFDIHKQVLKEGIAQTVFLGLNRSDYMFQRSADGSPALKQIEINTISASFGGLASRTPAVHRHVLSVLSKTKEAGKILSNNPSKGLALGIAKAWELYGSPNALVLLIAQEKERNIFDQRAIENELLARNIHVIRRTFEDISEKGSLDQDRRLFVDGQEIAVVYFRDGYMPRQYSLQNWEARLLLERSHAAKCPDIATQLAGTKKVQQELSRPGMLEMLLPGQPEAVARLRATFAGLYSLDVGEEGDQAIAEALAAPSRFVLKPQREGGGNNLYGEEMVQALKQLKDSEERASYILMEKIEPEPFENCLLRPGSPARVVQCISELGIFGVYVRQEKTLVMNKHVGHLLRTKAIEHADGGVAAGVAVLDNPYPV
Conditions: cited from earlier work.

Test [2] concerns the target T2, Rat GS (Rattus norvegicus, UniProt P46413).
T2 sequence (P46413 1-474): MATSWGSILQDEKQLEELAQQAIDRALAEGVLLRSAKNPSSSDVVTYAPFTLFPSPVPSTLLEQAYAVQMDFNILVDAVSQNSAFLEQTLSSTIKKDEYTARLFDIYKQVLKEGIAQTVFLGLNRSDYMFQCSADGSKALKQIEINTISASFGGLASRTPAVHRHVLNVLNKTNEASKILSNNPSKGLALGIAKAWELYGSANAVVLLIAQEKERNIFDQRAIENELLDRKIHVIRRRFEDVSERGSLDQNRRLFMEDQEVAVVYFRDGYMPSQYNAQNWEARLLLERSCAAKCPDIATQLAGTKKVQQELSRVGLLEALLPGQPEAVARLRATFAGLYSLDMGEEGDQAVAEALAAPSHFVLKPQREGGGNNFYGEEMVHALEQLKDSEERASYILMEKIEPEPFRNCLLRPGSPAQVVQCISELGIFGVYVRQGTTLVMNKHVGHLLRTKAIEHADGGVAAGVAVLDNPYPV
Conditions: cited from earlier work.

Test [3] addresses T3, S. agalactiae γ-GCS-GS (Streptococcus agalactiae serotype V, UniProt Q8DXM9).
T3 sequence (Q8DXM9 1-750): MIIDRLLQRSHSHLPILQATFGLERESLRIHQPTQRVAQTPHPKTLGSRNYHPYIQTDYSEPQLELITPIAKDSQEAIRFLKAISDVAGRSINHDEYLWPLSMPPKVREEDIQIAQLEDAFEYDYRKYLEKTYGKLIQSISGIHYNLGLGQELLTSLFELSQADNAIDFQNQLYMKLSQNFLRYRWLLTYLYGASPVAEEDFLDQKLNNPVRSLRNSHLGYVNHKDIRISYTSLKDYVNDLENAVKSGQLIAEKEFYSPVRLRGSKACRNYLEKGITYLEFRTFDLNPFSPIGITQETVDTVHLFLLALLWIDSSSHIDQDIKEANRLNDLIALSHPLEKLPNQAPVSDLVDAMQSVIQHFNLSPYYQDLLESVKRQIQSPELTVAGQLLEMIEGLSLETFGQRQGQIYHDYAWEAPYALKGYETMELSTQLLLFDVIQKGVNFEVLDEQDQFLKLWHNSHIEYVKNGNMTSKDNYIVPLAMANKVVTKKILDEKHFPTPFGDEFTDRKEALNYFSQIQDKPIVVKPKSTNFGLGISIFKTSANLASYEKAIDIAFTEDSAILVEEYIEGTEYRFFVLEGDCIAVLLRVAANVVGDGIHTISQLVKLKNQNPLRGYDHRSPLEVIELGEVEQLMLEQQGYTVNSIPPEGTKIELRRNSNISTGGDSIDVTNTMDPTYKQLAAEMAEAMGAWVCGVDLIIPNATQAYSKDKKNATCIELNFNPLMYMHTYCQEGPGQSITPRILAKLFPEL
The experiment in a line: GS activity assay based on ADP formation, S. agalactiae γ-GCS-GS. The settings on record: GS activity. The procedure: Transformed cells were grown, induced, and harvested by centrifugation, and were then broken using a French pressure cell. […] The column was equilibrated with 50 mM Tris HCl buffer, pH 7.4, containing 5 mM L-glutamate, 5 mM MgCl2, and 5 mM β-mercaptoethanol, and the high-speed supernatant was loaded. After washing the column with equilibration buffer to remove proteins lacking a His-tag, the expressed His8-tagged protein was eluted using the same buffer supplemented with 200 mM imidazole. Amount of γ-GCS activity was determined as described in Example 2. […] It was observed that the purified enzyme catalyzed both the γ-GCS and the GS reactions. Since the GS-specific activity was higher than the specific activity for any known GS enzyme, it was apparent that the expressed 85 kDa S. agalactiae protein (rather than a trace impurity), accounted for the observed GS activity. Using the pREP4 auxiliary plasmid instead of the pRARE plasmid gave somewhat lower yields (325 mg total protein vs. 442 mg protein using pRARE) but the specific activities of the γ-GCS activity (870 units/mg) and GS activities (1143 units/mg) were similar.
Results for E. coli GS are from H. Gushima et al. J. Appl. Biochem. 5, 210-218 (1983). Results for rat GS are from J. L. Luo et al. Biochem. Biophys. Res. Commun. 275, 577-581 (2000). Results for human GS are from R. Njalsson et al. Biochem. Biophys. Res. Commun. 289, 80-84 (2001) and R. Njalsson et al. Biochem. J. 349, 275-279 (2000).

`Nc1ncnc2c1ncn2[C@@H]1O[C@H](COP(=O)(O)OP(=O)(O)OP(=O)(O)O)[C@@H](O)[C@H]1O` [ATP]: the values for the Vmax in test [1], in test [2] and in test [3] (unit = 1 μmol product per hour) were 361 ± 84 units/mg, 678 units/mg and 1662 ± 77 units/mg, respectively. Further, the figures for the Km in test [1] (substrate Km), in test [2] (substrate Km) and in test [3] (substrate Km) were 220 ± 30 µM, 37 µM and 420 ± 49 µM, respectively.

The values above are taken from US20080194701A1, “Bifunctional Enzyme with Y-Glutamylcysteine Synthetase and Glutathione Synthetase Activity and Uses Thereof” (priority 2004, published 2008).
